# According to patent publication US20210395256A1, “TYROSINE KINASE INHIBITORS, COMPOSITIONS AND METHODS THERE OF” (Betta Pharmaceuticals Co., Ltd., priority 2018, published 2021):
# Like-named read-outs stand apart in the source and are kept apart here.
# How the values were obtained:
# Ba/F3-ETV6-NTRK3 = target: T1, Ba/F3-ETV6-NTRK3 (Homo sapiens, UniProt Q16288); test: Ba/F3-ETV6-NTRK3 cells proliferation assay; format: cell-based; settings: 72 h, CellTiter Glo
# T1 construct: Ba/F3 cells with TPM3-NTRK1 or ETV6-NTRK3 fusion mutation gene stably overexpressed named Ba/F3-TPM3-NTRK1 and Ba/F3-ETV6-NTRK3; fused on or other part: P41212 (Transcription factor ETV6)
# T1 sequence (Q16288 whole entry, the tested form may be a part): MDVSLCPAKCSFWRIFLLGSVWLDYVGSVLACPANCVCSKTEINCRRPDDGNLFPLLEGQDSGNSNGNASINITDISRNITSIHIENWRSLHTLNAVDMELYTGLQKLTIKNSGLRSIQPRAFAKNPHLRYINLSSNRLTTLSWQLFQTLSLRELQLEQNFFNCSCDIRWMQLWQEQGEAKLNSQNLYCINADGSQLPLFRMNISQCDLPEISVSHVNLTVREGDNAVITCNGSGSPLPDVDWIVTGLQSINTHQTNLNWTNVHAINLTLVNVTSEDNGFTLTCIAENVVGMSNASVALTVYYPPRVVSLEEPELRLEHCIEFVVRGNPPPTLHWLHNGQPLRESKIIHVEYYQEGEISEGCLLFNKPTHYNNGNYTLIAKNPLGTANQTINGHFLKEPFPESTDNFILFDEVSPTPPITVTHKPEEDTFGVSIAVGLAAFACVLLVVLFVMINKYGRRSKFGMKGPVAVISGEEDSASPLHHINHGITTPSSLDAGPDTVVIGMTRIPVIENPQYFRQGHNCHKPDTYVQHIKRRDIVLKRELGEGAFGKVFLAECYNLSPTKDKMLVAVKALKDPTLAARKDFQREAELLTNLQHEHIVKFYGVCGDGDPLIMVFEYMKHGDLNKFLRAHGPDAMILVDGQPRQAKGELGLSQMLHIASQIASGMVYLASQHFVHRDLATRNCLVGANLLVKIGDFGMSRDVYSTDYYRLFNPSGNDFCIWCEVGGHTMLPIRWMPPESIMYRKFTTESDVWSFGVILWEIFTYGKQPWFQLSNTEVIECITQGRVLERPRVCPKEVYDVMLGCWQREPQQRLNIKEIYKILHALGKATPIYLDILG
# Method: (§1) Example 202 Ba/F3-TPM3-NTRK1 and Ba/F3-ETV6-NTRK3 cells proliferation assay
# (§2) Cell line: Ba/F3 cells with TPM3-NTRK1 or ETV6-NTRK3 fusion mutation gene stably overexpressed named Ba/F3-TPM3-NTRK1 and Ba/F3-ETV6-NTRK3.
# (§3) RPMI 1640 and 10% FBS and 1% PS and 2 ug/mL puromycin.
# (§4) b) Collect cell to a 15 mL centrifuged tube, centrifuge at 1000 rpm for 5 min. Discard the supernatant, count, and make the cell density at 1.49×10^4 cells/mL, then place it in a 37° C., 5% CO2 incubator.
# (§5) a) The test compound (20 mM stock solution) was diluted to 60 μM with 100% DMSO as starting concentration then 3-fold serial diluted with “9+0” concentrations. in a 96-well dilution plate (Thermo, Cat. No. 249944);
# (§6) b) The above compound solution was diluted 1:20 times with culture medium to prepare a 10 fold working solution;
# (§7) a) Take cells in log phase growth, centrifuge at 1000 rpm for 5 min, then resuspend the cells with culture medium, then count cells;
# (§8) b) Cells were seeded to 96-well cell culture plate with density at 2000 cells/well;
# (§9) a) Compounds prepared at step 2 were added to cell plate with 15 μL per well, the final concentrations were 300, 100, 33.33, 11.11, 3.70, 1.23, 0.41, 0.14, 0.05 and 0 nM, and the final concentration of DMSO was 0.5%. The blank control well was a culture medium (0.5% DMSO);
# (§10) c) The cells were incubated for an additional 72 h in the incubator.
# (§11) a) Remove the 96-well cell culture plate and add 50 μl of CTG reagent (CellTiter Glo kit, promega, Cat #G7573).
# (§12) b) Plate was shaked for 2 min and then let it cool for 30 min at room temperature.
# (§13) c) The Luminescence signal value was read using a PerkinElmer reader.
# (§14) Experimental Data Analysis
# (§15) Data were analyzed using GraphPad Prism 6.0 software to obtain a fitted curve of compound activity.
# (§16) Fit the Compound IC50 from non-linear regression equation:
# (§17) Y=Bottom+(Top-Bottom)/(1+10^((Log IC50-X)×HillSlope));
# (§18) X: The log of the concentration of the compound; Y: Luminescence value.
# TrkA kinase = TrkA kinase (Homo sapiens, UniProt P04629); test: TrkA kinase assay (mobility shift assay); format: biochemical; settings: read-out: Trk A Kinase IC50
# Sequence of TrkA kinase (P04629 33-796): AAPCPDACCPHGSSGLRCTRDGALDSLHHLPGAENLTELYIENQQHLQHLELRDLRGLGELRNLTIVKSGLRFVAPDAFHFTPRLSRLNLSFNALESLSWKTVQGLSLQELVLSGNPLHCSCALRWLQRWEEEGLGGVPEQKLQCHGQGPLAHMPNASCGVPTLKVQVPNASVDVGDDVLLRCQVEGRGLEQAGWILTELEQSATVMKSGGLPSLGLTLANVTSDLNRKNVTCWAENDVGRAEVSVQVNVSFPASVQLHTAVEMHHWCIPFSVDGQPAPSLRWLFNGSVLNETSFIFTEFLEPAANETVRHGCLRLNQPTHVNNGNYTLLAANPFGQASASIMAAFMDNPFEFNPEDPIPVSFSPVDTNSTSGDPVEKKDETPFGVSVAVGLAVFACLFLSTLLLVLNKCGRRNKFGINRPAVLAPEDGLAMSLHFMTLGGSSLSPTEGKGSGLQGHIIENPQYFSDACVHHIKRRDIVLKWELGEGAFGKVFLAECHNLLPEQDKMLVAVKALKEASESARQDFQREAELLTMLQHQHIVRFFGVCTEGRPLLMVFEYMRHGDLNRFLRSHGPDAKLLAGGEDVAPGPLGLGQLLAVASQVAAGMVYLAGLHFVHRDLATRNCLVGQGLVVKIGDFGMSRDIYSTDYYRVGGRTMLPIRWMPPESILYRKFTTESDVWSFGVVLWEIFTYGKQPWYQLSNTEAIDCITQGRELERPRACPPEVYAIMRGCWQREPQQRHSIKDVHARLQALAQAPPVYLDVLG
# Method in brief: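 Ten-point compound series was preincubated 10 min at room temperature with TrkA, then FAM-peptide plus ATP added in HEPES pH 7.5/Brij-35 buffer and reacted at 28 °C before EDTA quench.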
# Ba/F3-TPM3-NTRK1 = target: T2, Ba/F3-TPM3-NTRK1 (Homo sapiens, UniProt P04629); test: Ba/F3-TPM3-NTRK1 cells proliferation assay; format: cell-based; settings: 72 h, CellTiter Glo
# T2 construct: expressed in transfected cells; host or cells: Ba/F3; the other entry of the earlier key: TPM3 (P06753, Tropomyosin alpha-3 chain)
# T2 sequence (P04629 510-796 limits assumed): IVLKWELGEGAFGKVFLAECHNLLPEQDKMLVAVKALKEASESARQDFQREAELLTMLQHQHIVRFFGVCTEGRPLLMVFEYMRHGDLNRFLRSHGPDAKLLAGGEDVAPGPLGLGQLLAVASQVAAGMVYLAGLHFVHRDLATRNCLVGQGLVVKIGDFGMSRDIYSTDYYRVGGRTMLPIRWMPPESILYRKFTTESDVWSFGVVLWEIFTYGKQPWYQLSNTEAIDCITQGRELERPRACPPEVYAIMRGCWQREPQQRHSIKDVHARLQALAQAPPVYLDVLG
# Method: as §1, §2, §3, §4, §5, §6, §7, §8, §9, §10, §11, §12, §13, §14, §15, §16, §17, §18
# [1] = Liver microsomes metabolic stability assay, rat; format: in vitro ADME; settings: male, rat liver microsomes 0.5 mg/mL, 37° C.; for half-life at 2 μM: read-out: t1/2 Rat
# Method in brief: (§19)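 Pooled human, male rat or male mouse liver microsomes (0.5 mg/mL final) incubated at 37° C with 2 μM compound, with or without 1 mM NADPH. Samples at 0-60 min quenched in cold acetonitrile and analyzed by LC-MS/MS in duplicate. t1/2 derived from ln(% remaining) vs time slope, converted to CLint (μL/min/mg).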
# NTRK1-G595R = NTRK1-G595R (Homo sapiens, UniProt P04629, G595R); test: NTRK1-G595R cell proliferation assay (Table 13); format: cell-based
# Sequence of NTRK1-G595R (P04629 33-796 G595R): as the sequence (P04629 33-796) above, with G563R counted along it
# [2] = Liver microsomes metabolic stability assay, mouse; format: in vitro ADME; settings: male, mouse liver microsomes 0.5 mg/mL, 37° C.; for half-life at 2 μM: read-out: t1/2 Mouse
# Method in brief: as §19
# [3] = Liver microsomes metabolic stability assay, human; format: in vitro ADME; settings: human liver microsomes 0.5 mg/mL, 37° C.; for half-life at 2 μM: read-out: t1/2 Human
# Method in brief: as §19
Structure (SMILES),IC50 (Ba/F3-ETV6-NTRK3) [nM],IC50 (TrkA kinase; numeric values) [nM],IC50 (Ba/F3-TPM3-NTRK1) [nM],microsomal CLint at 2 μM [1] [µL/min/mg],half-life at 2 μM [1] [min],IC50 (NTRK1-G595R) [nM],microsomal CLint at 2 μM [2] [µL/min/mg],half-life at 2 μM [2] [min],microsomal CLint at 2 μM [3] [µL/min/mg],half-life at 2 μM [3] [min],IC50 (TrkA kinase; class symbols) [nM]
"COc1cc2nc(-c3cnn4ccc(N5CCC[C@@H]5c5cc(F)ccc5F)nc34)[nH]c2cc1C#N [Compound 125, (R)-2-(5-(2-(2,5-difluorophenyl)pyrrolidin-1-yl)pyrazolo[1,5-a]pyrimidin-3-yl)-5-methoxy-1H-benzo[d]imidazole-6-carbonitrile]",2.21,1.1,1.38,15,92.4,46.6,16.4,84.5,17.2,80.6,
"CSc1cc2nc(-c3cnn4ccc(N5CCC[C@@H]5c5cc(F)ccc5F)nc34)[nH]c2cc1C#N [Compound 126, (R)-2-(5-(2-(2,5-difluorophenyl)pyrrolidin-1-yl)pyrazolo[1,5-a]pyrimidin-3-yl)-5-(methylthio)-1H-benzo[d]imidazole-6-carbonitrile]",,,1.04,21,66,106,33.4,41.5,42.2,32.8,≤ 10
"COC(=O)c1cc2nc(-c3cnn4ccc(N5CCC[C@@H]5c5cc(F)ccc5F)nc34)[nH]c2cc1OC [Compound 155, methyl (R)-2-(5-(2-(2,5-difluorophenyl)pyrrolidin-1-yl)pyrazolo[1,5-a]pyrimidin-3-yl)-6-methoxy-1H-benzo[d]imidazole-5-carboxylate]",0.53,0.6,1.2,,,18.2,,,,,
"COCCOc1cc2[nH]c(-c3cnn4ccc(N5CCC[C@@H]5c5cc(F)ccc5F)nc34)nc2cc1C#N [Compound 169, (R)-2-(5-(2-(2,5-difluorophenyl)pyrrolidin-1-yl)pyrazolo[1,5-a]pyrimidin-3-yl)-6-(2-methoxyethoxy)-1H-benzo[d]imidazole-5-carbonitrile]",,,2.91,78.4,17.7,103,102,13.5,55.8,24.8,≤ 10
"C[S+]([O-])c1cc2nc(-c3cnn4ccc(N5CCC[C@@H]5c5cc(F)ccc5F)nc34)[nH]c2cc1C#N (stereo partly drawn) [Compound 171, 2-(5-((R)-2-(2,5-difluorophenyl)pyrrolidin-1-yl)pyrazolo[1,5-a]pyrimidin-3-yl)-5-(methylsulfinyl)-1H-benzo[d]imidazole-6-carbonitrile]",2.63,1,3.41,58.2,23.8,216,71.2,19.5,45.4,30.5,

# More lines, in order of falling IC50 (Ba/F3-TPM3-NTRK1), values ahead:
IC50 (Ba/F3-ETV6-NTRK3) [nM],IC50 (TrkA kinase; numeric values) [nM],IC50 (Ba/F3-TPM3-NTRK1) [nM],microsomal CLint at 2 μM [1] [µL/min/mg],half-life at 2 μM [1] [min],IC50 (NTRK1-G595R) [nM],microsomal CLint at 2 μM [2] [µL/min/mg],half-life at 2 μM [2] [min],microsomal CLint at 2 μM [3] [µL/min/mg],half-life at 2 μM [3] [min],IC50 (TrkA kinase; class symbols) [nM],Structure (SMILES)
5.65,4.8,3.92,,,183,,,,,,"N#Cc1cc2nc(-c3cnn4ccc(N5CCC[C@@H]5c5cc(F)ccc5F)nc34)[nH]c2cc1OC(F)F [Compound 156, (R)-6-(difluoromethoxy)-2-(5-(2-(2,5-difluorophenyl)pyrrolidin-1-yl)pyrazolo[1,5-a]pyrimidin-3-yl)-1H-benzo[d]imidazole-5-carbonitrile]"
1.56,1.5,2.19,3.6,385,81.8,14,99,1.2,1160,,"N#Cc1cc2nc(-c3cnn4ccc(N5CCC[C@@H]5c5cc(F)ccc5F)nc34)[nH]c2cc1C#N [Compound 148, (R)-2-(5-(2-(2,5-difluorophenyl)pyrrolidin-1-yl)pyrazolo[1,5-a]pyrimidin-3-yl)-1H-benzo[d]imidazole-5,6-dicarbonitrile]"
,,2.19,45.2,30.7,89.8,97.6,14.2,46.6,29.7,≤ 10,"CS(=O)(=O)c1cc2nc(-c3cnn4ccc(N5CCC[C@@H]5c5cc(F)ccc5F)nc34)[nH]c2cc1C(N)=O [Compound 173, (R)-2-(5-(2-(2,5-difluorophenyl)pyrrolidin-1-yl)pyrazolo[1,5-a]pyrimidin-3-yl)-5-(methylsulfonyl)-1H-benzo[d]imidazole-6-carboxamide]"
2.49,0.6,2.08,44.8,30.9,257,32.4,42.8,41.6,33.3,,"CS(=O)(=O)c1cc2nc(-c3cnn4ccc(N5CCC[C@@H]5c5cc(F)ccc5F)nc34)[nH]c2cc1C#N [Compound 172, (R)-2-(5-(2-(2,5-difluorophenyl)pyrrolidin-1-yl)pyrazolo[1,5-a]pyrimidin-3-yl)-5-(methylsulfonyl)-1H-benzo[d]imidazole-6-carbonitrile]"
2.05,0.43,1.06,92.4,15,15.6,105,13.2,56.2,24.7,,"CNC(=O)c1cc2nc(-c3cnn4ccc(N5CCC[C@@H]5c5cc(F)ccc5F)nc34)[nH]c2cc1OC [Compound 160, (R)-2-(5-(2-(2,5-difluorophenyl)pyrrolidin-1-yl)pyrazolo[1,5-a]pyrimidin-3-yl)-6-methoxy-N-methyl-1H-benzo[d]imidazole-5-carboxamide]"
